According to ChEMBL document CHEMBL1201862, “PubChem BioAssay data set” (2004):
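Values below derive from 48-hour exposures of cells grown in 96-well plates, with endpoints linearly interpolated between the two concentrations bracketing the appropriate inhibition level. At the GI50, growth is halved.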 Active and inactive are the calls of the source. Cut-off read from the data, not from the text of the source: active = GI50 up to about 1.1 µM and inactive = higher.

Columns and labels:
Test in all cases: NCI tumour cell line growth inhibition, 48 h
BT-549 = test system: BT-549
ACHN = test system: ACHN
T47D = test system: T47D
IGROV-1 = test system: IGROV-1
LOX IMVI = test system: LOX IMVI
M14 = test system: M14
MDA-N = test system: MDA-N
SF-268 = test system: SF-268
COLO 205 = test system: COLO 205
A498 = test system: A498
HOP-92 = test system: HOP-92
MOLT-4 = test system: MOLT-4
Malme-3M = test system: Malme-3M
786-0 = test system: 786-0
UO-31 = test system: UO-31
SNB-75 = test system: SNB-75
SW-620 = test system: SW-620
NCI-H522 = test system: NCI-H522
NCI-H226 = test system: NCI-H226
HL-60 = test system: HL-60

SMILES	GI50 (BT-549)	GI50 (ACHN)	GI50 (T47D)	GI50 (IGROV-1)	GI50 (LOX IMVI)	GI50 (M14)	GI50 (MDA-N)	GI50 (SF-268)	GI50 (COLO 205)	GI50 (A498)	GI50 (HOP-92)	GI50 (MOLT-4)	GI50 (Malme-3M)	GI50 (786-0)	GI50 (UO-31)	GI50 (SNB-75)	GI50 (SW-620)	GI50 (NCI-H522)	GI50 (NCI-H226)	GI50 (HL-60)
CC(=O)OCC1OC(Nn2c(=O)[nH]c3ccccc3c2=O)C(OC(C)=O)C(OC(C)=O)C1OC(C)=O (stereo not given)	> 100 µM (inactive)	> 100 µM (inactive)	35.5 µM (inactive)	> 100 µM (inactive)	> 100 µM (inactive)	> 100 µM (inactive)	> 100 µM (inactive)	> 100 µM (inactive)	> 100 µM (inactive)	> 100 µM (inactive)	89.1 µM (inactive)	97.7 µM (inactive)	> 100 µM (inactive)	> 100 µM (inactive)	70.3 µM (inactive)	> 100 µM (inactive)	> 100 µM (inactive)	> 100 µM (inactive)	> 100 µM (inactive)	> 100 µM (inactive)
CCCCC1Cc2cc(O)ccc2-c2n1c1cc(O)ccc1[n+]2C.CCCCC1Cc2cc(O)ccc2-c2n1c1ccc(O)cc1[n+]2C (stereo not given)	19 µM (inactive)	56 µM (inactive)	22.3 µM (inactive)	25.9 µM (inactive)	39 µM (inactive)	37.9 µM (inactive)	26.8 µM (inactive)	4.57 µM (inactive)	18.3 µM (inactive)	31.9 µM (inactive)	9.55 µM (inactive)	49.1 µM (inactive)	19.5 µM (inactive)	26.5 µM (inactive)	65.6 µM (inactive)	12.7 µM (inactive)	32.2 µM (inactive)	2.99 µM (inactive)	41 µM (inactive)	26.1 µM (inactive)
CCn1c2ccccc2c2cc(NC(=O)c3c(C)nc(O)nc3NCCNCCO)ccc21	> 100 µM (inactive)	> 100 µM (inactive)	> 100 µM (inactive)	> 100 µM (inactive)	> 100 µM (inactive)	> 100 µM (inactive)	> 100 µM (inactive)	> 100 µM (inactive)	> 100 µM (inactive)	> 100 µM (inactive)	> 100 µM (inactive)	> 100 µM (inactive)	> 100 µM (inactive)	> 100 µM (inactive)	> 100 µM (inactive)	> 100 µM (inactive)	> 100 µM (inactive)	> 100 µM (inactive)	> 100 µM (inactive)	1.58 µM (inactive)
COc1ccc(NC(=S)NC(=O)c2ccc3c(c2)Sc2ccccc2O3)c([N+](=O)[O-])c1	37.1 µM (inactive)	21.4 µM (inactive)	22.4 µM (inactive)	18.7 µM (inactive)	> 100 µM (inactive)	39.1 µM (inactive)	44.5 µM (inactive)	19.4 µM (inactive)	> 100 µM (inactive)	18.5 µM (inactive)	19.2 µM (inactive)	34.4 µM (inactive)	14.4 µM (inactive)	17.9 µM (inactive)	25.6 µM (inactive)	8.36 µM (inactive)	0.387 µM (active)	14.9 µM (inactive)	> 100 µM (inactive)	32.7 µM (inactive)
COc1cc2ccc1OCc1cccc(n1)COc1ccc(cc1OC)/C=N\CCNCC/N=C\2	42.5 µM (inactive)	> 100 µM (inactive)	65.8 µM (inactive)	> 100 µM (inactive)	> 100 µM (inactive)	> 100 µM (inactive)	> 100 µM (inactive)	80.9 µM (inactive)	> 100 µM (inactive)	> 100 µM (inactive)	48.4 µM (inactive)	> 100 µM (inactive)	> 100 µM (inactive)	> 100 µM (inactive)	> 100 µM (inactive)	30.5 µM (inactive)	> 100 µM (inactive)	34.4 µM (inactive)	> 100 µM (inactive)	> 100 µM (inactive)
CC(=O)OCCc1cc2ccccc2oc1=O	> 100 µM (inactive)	> 100 µM (inactive)	> 100 µM (inactive)	> 100 µM (inactive)	> 100 µM (inactive)	> 100 µM (inactive)	> 100 µM (inactive)	> 100 µM (inactive)	> 100 µM (inactive)	> 100 µM (inactive)	> 100 µM (inactive)	> 100 µM (inactive)	> 100 µM (inactive)	> 100 µM (inactive)	> 100 µM (inactive)	> 100 µM (inactive)	> 100 µM (inactive)	> 100 µM (inactive)	> 100 µM (inactive)	> 100 µM (inactive)
O=C(OC(/C=C/c1ccccc1)P1(=O)N(Cc2ccccc2)[C@@H]2CCCC[C@H]2N1Cc1ccccc1)c1ccccc1 (stereo not given in full)	4.26 µM (inactive)	3.81 µM (inactive)	4.43 µM (inactive)	2.9 µM (inactive)	3.57 µM (inactive)	3.69 µM (inactive)	3.8 µM (inactive)	6.37 µM (inactive)	2.04 µM (inactive)	5.73 µM (inactive)	2.08 µM (inactive)	2.15 µM (inactive)	3.54 µM (inactive)	4.38 µM (inactive)	3.34 µM (inactive)	3.18 µM (inactive)	4.57 µM (inactive)	3.17 µM (inactive)	6.43 µM (inactive)	2.79 µM (inactive)
Nc1ncnc2oc(C3OC(COC(=O)c4ccccc4)C(OC(=O)c4ccccc4)C3OC(=O)c3ccccc3)nc12 (stereo not given)	> 100 µM (inactive)	> 100 µM (inactive)	21.1 µM (inactive)	> 100 µM (inactive)	> 100 µM (inactive)	> 100 µM (inactive)	> 100 µM (inactive)	> 100 µM (inactive)	> 100 µM (inactive)	14.8 µM (inactive)	> 100 µM (inactive)	> 100 µM (inactive)	96.2 µM (inactive)	> 100 µM (inactive)	> 100 µM (inactive)	29.2 µM (inactive)	> 100 µM (inactive)	> 100 µM (inactive)	> 100 µM (inactive)	> 100 µM (inactive)
CCCCc1ccc(Nc2nc(Cl)c3c(ncn3C3CC(Oc4ccc(C)cc4)C(COc4ccc(C)cc4)O3)n2)cc1 (stereo not given)	> 100 µM (inactive)	> 100 µM (inactive)	> 100 µM (inactive)	> 100 µM (inactive)	> 100 µM (inactive)	> 100 µM (inactive)	> 100 µM (inactive)	> 100 µM (inactive)	> 100 µM (inactive)	> 100 µM (inactive)	> 100 µM (inactive)	33.9 µM (inactive)	> 100 µM (inactive)	> 100 µM (inactive)	> 100 µM (inactive)	22.8 µM (inactive)	> 100 µM (inactive)	> 100 µM (inactive)	> 100 µM (inactive)	87.7 µM (inactive)
CC1OC(OC2C(O[C@H]3CC[C@@]4(C)C(=CC[C@H]5[C@@H]6C[C@@H]7O[C@]8(CC[C@@H](C)CO8)[C@@H](C)[C@@H]7[C@@]6(C)CC[C@@H]54)C3)OC(CO)C(O)C2O)C(O)C(O)C1O (stereo not given in full)	4.49 µM (inactive)	1.58 µM (inactive)	3.76 µM (inactive)	2.8 µM (inactive)	0.805 µM (active)	1.22 µM (inactive)	3.29 µM (inactive)	2.44 µM (inactive)	2.95 µM (inactive)	1.51 µM (inactive)	2.95 µM (inactive)	2.64 µM (inactive)	3.15 µM (inactive)	1.14 µM (inactive)	0.638 µM (active)	1.24 µM (inactive)	0.681 µM (active)	1.28 µM (inactive)	2.49 µM (inactive)	0.74 µM (active)
